According to PMC10166890, “Screening for DAX1/EWS‐FLI1 functional inhibitors identified dihydroorotate dehydrogenase as a therapeutic target for Ewing's sarcoma” (Cancer Medicine, 2023):
“Also recorded” adds a separate entry of the source.

Key:
[1] = test system: EWS‐FLI1 target gene expression; experiment: EWS‐FLI1 target gene expression in A‐673 tumors after 14‐day treatment; format: in vivo, mouse; conditions: after 14‐day oral treatment
Description: Total RNA was extracted using the RNeasy Plus Mini kit (Qiagen, Valencia, CA, USA) according to the manufacturer's protocol. cDNA was synthesized from 1 μg of total RNA using a SuperScript VILO cDNA synthesis kit (Thermo Fisher Scientific). Real‐time PCR was carried out using TaqMan Fast Universal PCR Master Mix (Thermo Fisher Scientific).
(§1) All animal studies were performed in accordance with Standards for Proper Conduct sof Animal Experiments at Kyowa Kirin Co., Ltd., under the approval of the company's Institutional Animal Care and Use Committee. Male C.B17/Icr‐scid/scidJcl (SCID) mice (5 weeks old) were purchased from CREA Japan (Tokyo, Japan). K‐733 was suspended in 0.5% (w/v) methylcellulose 400 (MC400; FUJIFILM Wako Pure Chemical) and orally administered to mice once daily. Ewing's cells were suspended in Dulbecco's phosphate‐buffered saline (DPBS; Thermo Fisher Scientific, Waltham, MA, USA) and injected subcutaneously into the ventral side of mice at 5 × 10^6 cells/0.1 mL/mouse for A‐673 and TC‐71 and 1 × 10^7 cells/0.1 mL/mouse for CADO‐ES1 and SK‐ES‐1. In experiments using TC‐71 cells, 0.3 mg of anti‐asialo GM1 antibody (FUJIFILM Wako Pure Chemical) was injected intraperitoneally 1 day before TC‐71 injection. The tumor size and body weight were measured every 3 or 4 days. The tumor volume was calculated using the following equation: Tumor volumemm^3=DL×DS×DS×1/2, where DL and DS represent the long diameter and short diameter, respectively. The pharmacokinetic analysis of K‐733 is described in Materials and Methods S2.
FIGURE 8 K‐733 exerts an anti‐tumor effect in mice bearing Ewing's sarcoma. (A) Plasma concentration‐time profiles of K‐733 in mice after a single oral administration of K‐733. Each plot represents the mean of duplicate measurements. (B) Antitumor effect of K‐733 on A‐673 cells. Indicated doses of K‐733 were orally administered once daily for 14 days. Each plot represents the mean of n = 5 and SE. C, Influence of K‐733 on EWS‐FLI1‐related genes. Tumors were sampled after 14 days oral administration of K‐733. Each plot represents the mean of n = 5 and SE. […]

[2] = test system: A‐673 cell‐derived tumors; experiment: A‐673 xenograft in SCID mice; format: in vivo, mouse
Description: as §1

CADO‐ES1 = CADO‐ES1 xenograft in SCID mice; format: in vivo, mouse; conditions: 10, 30, or 100 mg/kg orally once daily
Description: as §1

DHODH [3] = target: T1, DHODH (Homo sapiens, UniProt Q02127); experiment: DHODH inhibition assay, A‐673 mitochondria fraction (orotic acid production, LCMSMS); format: biochemical; conditions: read-out: IC50 for orotic acid production through DHODH
T1 construct: The mitochondria fraction was isolated from A‐673 cells using Q proteome Mitochondria Isolation kit; endogenous in cells; host or cells: A-673 cells, mitochondria fraction
T1 sequence (Q02127 whole entry): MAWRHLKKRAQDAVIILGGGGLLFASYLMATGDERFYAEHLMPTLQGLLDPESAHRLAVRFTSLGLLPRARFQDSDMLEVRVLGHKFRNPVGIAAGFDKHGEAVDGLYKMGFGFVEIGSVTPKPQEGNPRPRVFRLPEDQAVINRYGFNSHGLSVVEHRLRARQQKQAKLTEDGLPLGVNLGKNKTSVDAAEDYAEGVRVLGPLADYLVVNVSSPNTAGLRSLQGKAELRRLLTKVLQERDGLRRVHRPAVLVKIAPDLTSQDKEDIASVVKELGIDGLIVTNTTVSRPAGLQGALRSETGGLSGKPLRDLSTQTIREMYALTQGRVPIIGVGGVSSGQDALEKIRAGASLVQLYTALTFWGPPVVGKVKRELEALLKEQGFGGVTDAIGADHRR
Description: The mitochondria fraction was isolated from A‐673 cells using Q proteome Mitochondria Isolation kit (QIAGEN, Hilden, Germany). The protein concentration of the fraction was determined using the DC‐protein assay kit (Bio‐Rad Laboratories, Hercules, CA, USA) with bovine serum albumin (Sigma‐Aldrich) as the standard. […] The reaction was quenched by adding 120 μL of 3 μM 5‐fluoroorotic acid acetonitrile solution. These samples were then centrifuged at 5000 g for 5 min to precipitate proteins, and the supernatant was collected. The samples were diluted 10‐fold with 70% acetonitrile‐water and subjected to liquid chromatography with tandem mass spectrometry (LCMSMS). The analyte was then separated on a hydrophilic interaction chromatography column (PC‐HILIC; 5 μm, 4.6 mm I.D. × 50 mm; Osaka Soda, Osaka, Japan). LCMSMS detection was performed by electrospray ionization in negative ion mode.

A‐673 cells = experiment: Cell viability assay (XTT), A‐673 cells; format: cell-based, human
Description: AsPC‐1, A‐673, and TC‐71 cells were seeded in 96‐well plates (800 cells/well for AsPC‐1, 2000 cells/well for A‐673, and 400 cells/well for TC‐71) and cultured overnight. Vehicle (DMSO) or a test compound diluted with the medium was then added to the wells (final DMSO concentration was 0.3%), and 72 h later, 2,3‐bis[2‐methoxy‐4‐nitro‐5‐sulfophenynl]‐2H‐tetrazolium‐5‐carboxanilide inner salt (XTT) reagent (Roche Diagnostics, Mannheim, Germany) was added to the medium. After 3‐h incubation at 37°C, the formation of the formazan dye was determined by measuring absorbance at 490 and 650 nm using a SpectraMax 340PC system (Molecular Devices, Sunnyvale, CA, USA).

[4] = Plasma concentration‐time profile after single oral administration; format: in vivo, mouse; conditions: BALB/c mice
Description: First, we evaluated the plasma concentration‐time profile of K‐733 after single oral administration at dose ranges from 1 to 100 mg/kg in BALB/c mice (donors of SCID mice) for dose selection (Figure 8A). […] Therefore, we selected dose ranges from 10 to 100 mg/kg for in vivo studies.
Male BALB/cAnNCrlCrlj mice (6 weeks old) were purchased from Jackson Laboratories Japan (Yokohama, Japan). K-733, suspended in 0.5% (w/v) MC400 was orally administered at 1, 3, 10, and 100 mg/kg (n=2), and blood samples were collected from the tail vein at 0.5, 1, 2, 4, 7 and 24 h after administration. Mice were euthanized with carbon dioxide inhalation after the final blood sampling. Plasma was separated and stored frozen until use. The plasma concentration of K-733 was determined by liquid chromatography with tandem mass spectrometry (LC-MS). Plasma samples were pre-treated for protein precipitation, and the supernatant was subjected to liquid LC-MS. The analyte was separated on a C18 reverse-phase column (CAPCELL PAK C18 MG 3 μm, 3 mm I.D. × 35 mm; Osaka Soda). LC-MS detection was performed by electrospray ionization in a positive ion mode. The detected mass-to-charge ratio of K-733 was 482.95/92.75 (Q1/Q3). The lower limit of quantification (LLOQ) was 10 nM.

DHODH [5] = target: T2, DHODH (Mus musculus, UniProt O35435); experiment: DHODH inhibition with mouse liver mitochondria; format: biochemical
T2 construct: IC50 value for the mouse liver mitochondrial fraction; from tissue; host or cells: mouse liver mitochondria
T2 sequence (O35435 whole entry): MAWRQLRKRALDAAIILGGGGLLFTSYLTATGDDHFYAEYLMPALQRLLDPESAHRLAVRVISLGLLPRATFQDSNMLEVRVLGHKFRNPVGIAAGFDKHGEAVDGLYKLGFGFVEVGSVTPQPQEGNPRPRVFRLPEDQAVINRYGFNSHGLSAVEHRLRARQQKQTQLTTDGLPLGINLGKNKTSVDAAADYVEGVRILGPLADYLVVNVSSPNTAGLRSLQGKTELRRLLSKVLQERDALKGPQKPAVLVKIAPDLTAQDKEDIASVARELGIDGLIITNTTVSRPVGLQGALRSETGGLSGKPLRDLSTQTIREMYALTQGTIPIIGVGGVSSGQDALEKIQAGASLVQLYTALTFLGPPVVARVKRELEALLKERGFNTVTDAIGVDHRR

TC‐71‐derived tumors = experiment: TC‐71 xenograft in SCID mice; format: in vivo, mouse; conditions: 10, 30, or 100 mg/kg orally once daily; less sensitive than others
Description: as §1

SK‐ES‐1 = SK‐ES‐1 xenograft in SCID mice; format: in vivo, mouse; conditions: 10, 30, or 100 mg/kg orally once daily
Description: as §1

Structure (SMILES): Cc1nc(-c2ccc(C3c4[nH]c5ccc(Cl)cc5c4CCN3C(=O)Oc3ccccc3)cc2)no1 (stereo not drawn) [K-733, phenyl 6‐chloro‐1‐(4‐(5‐methyl‐1,2,4‐oxadiazol‐3‐yl)phenyl)‐1,3,4,9‐tetrahydro‐2H‐pyrido[3,4‐b]indole‐2‐carboxylate]
- DAX1 mRNA levels in tumors [1]: no marked effect
- mRNA levels of IGFBP3 and DKK1 in tumors [1]: increased
- mRNA levels of NKX2‐2 in tumors [1]: decreased
- Treatment per control ratio (T/C), greatest change ([2]; 100 mg/kg orally once daily, A‐673 tumors): 0.38
- Tumor volume, A‐673 xenograft ([2]; 10, 30, or 100 mg/kg orally once daily up to 14 days): reduced; also recorded: inhibited tumor growth
- Body weight ([2]; A‐673‐bearing mice, up to 100 mg/kg orally once daily): without a body weight loss; also recorded: without affecting body weight gain
- Tumor growth, CADO‐ES1 xenograft (CADO‐ES1): reduced dose‐dependently
- IC50 (DHODH [3]): 0.953 nM
- Cell viability of A‐673 cells (A‐673 cells; 72 h): decreased the viability
- GI50 (A‐673 cells; Homo sapiens, A673, 50% growth inhibition concentration, A‐673 cells): 6.11 nM
- Plasma concentration, dose dependence ([4]; single oral 1 to 100 mg/kg): increased dose‐dependently
- Plasma concentration relative to IC50 (DAX1 reporter and DHODH inhibition) ([4]; single oral ≥10 mg/kg): higher than the IC50 value
- IC50 (DHODH [5]): 120 nM
- Tumor growth, TC‐71 xenograft (TC‐71‐derived tumors): reduced dose‐dependently
- Tumor growth, SK‐ES‐1 xenograft (SK‐ES‐1): reduced dose‐dependently
